In US7534763B2 (Bristol-Myers Squibb Company, priority 2004, dated 2009):
Like-named read-outs stand apart in the source and are kept apart here. Where a SMILES comes first, the peptide text is derived from it. [ ]: non-standard residue; d: D form. The star is where a group is joined. ξ: configuration not given here. Ala(6-(2-MePh)pyridin-3-yl) = Cc1ccccc1-c1ccc(C[C@H](N)C(=O)O)cn1; Phe(4-(2-Et-4-HO-Ph)) = CCc1cc(O)ccc1-c1ccc(C[C@H](N)C(=O)O)cc1; ξαMePhe(2-F) = CC(N)(Cc1ccccc1F)C(=O)O; ξαMeP = CC1(C(=O)O)CCCN1; Moc = COC(=O)*

Columns and labels:
Format in all cases: in vivo
[1] = Exposure during ipGTT in ob/ob mice; conditions: sc
Protocol: (§1) Peptides were dissolved in an appropriate vehicle at a concentration in nmol/ml equivalent to the dose that was to be administered in nmol/kg so that each mouse would receive the same volume/weight of dosing solution. Male C57BL/6J-ob/ob mice (10 weeks old) were randomized into groups of 6 mice per group based on fed plasma glucose and body weight. After an overnight fast, mice were weighed and placed in the experimental lab. After 30 min in the environment, the mice were bled via tail tip at −30 min and immediately injected subcutaneously (sc) with vehicle or the peptide dissolved in vehicle (0.1 ml solution/100 g body weight). At time 0 the mice were bled and then injected intraperitoneally with 50% glucose (2 g/kg) to initiate the intraperitoneal glucose tolerance test (ipGTT). The mice were bled 30, 60, 120 and 180 min after the glucose injection. Blood samples were drawn into potassium EDTA, placed on ice during the study and subsequently centrifuged for 10 min at 3000 rpm at 4° C. Plasma samples were diluted 11-fold for glucose analysis in the Cobas System. Another 5 μl plasma sample was diluted 5-fold with 20 μl of Sample Diluent (Insulin ELISA assay kit, Crystal Chem Inc.) and stored at −20° C. for subsequent analysis using the Ultra Sensitive Mouse Insulin ELISA kit (Crystal Chem Inc.).

[2] = Dog pharmacokinetic study (iv and sc, solution vehicles); conditions: beagle, plasma, dog; for AUC: read-out: AUCtot; for half-life: read-out: t½ (converted)
Protocol: The pharmacokinetic parameters of the compound of SEQ ID NO:9 were determined in male beagle dogs (n=4, 14±1 kg). Following an overnight fast, each animal received the compound of SEQ ID NO:9 either as an intravenous bolus via femoral vein (67 μg/kg) or by subcutaneous injection given at near the shoulder blades (67 μg/kg). Each animal received both intravenous and subcutaneous doses with a one-week washout between doses following a crossover design. […] Serial blood samples were collected in EDTA-containing microcentrifuge tubes at predose, 0.083, 0.25, 0.5, 0.75, 1, 2, 4, 6, 8, 24, and 30 hours post-dose after intravenous administration; at predose, 0.25, 0.5, 0.75, 1, 2, 4, 6, 8, 24, and 30 hours post-dose after subcutaneous administration. Approximately 0.3 mL of blood was collected at each time point. Blood samples were immediately centrifuged at 4° C. The obtained plasma was frozen with dry ice and stored at −20° C. Plasma drug levels were determined using the LC-MS/MS assay described above.
Plasma samples from in vivo dog study were prepared for analysis by precipitating plasma proteins with two volumes of acetonitrile containing an internal standard. The samples were vortex mixed and removed the precipitated proteins by centrifugation. The resulting supernatants were transferred to a 96-well plate and 10 μL were injected for analysis. Samples were prepared with the Packard Multiprobe II and Quadra 96 Liquid Handling System.
The HPLC system consisted of two Shimadzu LC10AD pumps (Columbia, Md.), a CTC PAL autosampler (Leap Technologies, Switzerland). The column used was a YMC Hydrosphere C18 (2.0×50 mm, 3 μm) (YMC, Inc., Milford, Ma.). The column temperature was maintained at 50° C. and the flow rate was 0.3 mL/minute. The mobile phase A consisted of 10 mM ammonium formate and 0.1% formic acid in water and mobile phase B consisted of 0.1% formic acid in acetonitrile. The initial mobile phase composition was 5% B, and remained at 5% B for one minute to equilibrate the column. The composition was ramped to 95% B over two minutes and held there for one additional minute. The mobile phase was then returned to initial conditions in one minute. Total analysis time was five minutes. A switching valve was used. The eluents between 0-1 minute were diverted to the waste.
The HPLC was interfaced to a Sciex API 4000 mass spectrometer, (Applied Biosystems, Foster City, Calif.) and was equipped with a TurboIonspray ionization source. Ultra high purity nitrogen was used as the nebulizing and turbo gas. The temperature of turbo gas was set at 300° C. and the interface heater was set at 60° C. Data acquisition utilized selected reaction monitoring (SRM). Ions representing the (M+2H)^2+ species for the compound of SEQ ID NO:9, and (M+2H)^2+ for BMS-501143 (IS) were selected in Q1 and were collisionally dissociated with high purity nitrogen at a pressure of 3.5×10^−3torr to form specific product ions which were subsequently monitored by Q3.
The standard curve concentrations, ranging from 1 to 1000 nM and from 4 to 5000 nM, were used for the in vivo samples obtained from low and high doses, respectively. The curves were fitted with a quadratic regression weighted by reciprocal […]. Standards were analyzed in duplicate. Quality control (QC) samples, prepared in blank matrix at the same concentrations as the standard were also analyzed in each analytical set. For the compound of SEQ ID NO:9, the calculated concentrations of more than 80% of the QCs were within 20% of nominal concentration, indicating acceptable assay performance.
The compound of SEQ ID NO:9 plasma concentration vs. time data were analyzed by noncompartmental methods using the […]™ software program. The Cmax and Tmax values were recorded directly from experimental observations. The AUC0-n and AUCtot values were calculated using a combination of linear and log trapezoidal summations. […]

ob/ob mice = assay: intraperitoneal glucose tolerance test (ipGTT) after sc injection in ob/ob mice (plasma glucose, insulin); conditions: ob/ob mice, sc, ipGTT 0-180 or 210 min
Protocol: as §1

[3] = 67 ug/kg, intravenous 67 μg/kg, Tables 6A-6C (6A vehicle 0.2 M Tris, pH 8.0)
[4] = sc, 67 ug/kg, subcutaneous 67 μg/kg, Tables 6A-6C (vehicle 0.2 M Tris, pH 8.0)

- Exposure/dose during ipGTT in ob/ob mice [1]: 11 nM * h/nmol/kg
- MRT [2, 3]: 4.9 ± 0.7 h
- AUC [2, 3]: 1.39 ± 0.227 µM·h
- clearance ([2]; 67 ug/kg, intravenous 67 μg/kg, Tables 6A-6C (6A vehicle 0.2 M Tris, pH 8.0), read-out: CLp): 0.51 ± 0.08 mL/min/kg
- half-life [2, 3]: 4.4 ± 0.4 h
- Cmax [2, 4]: 279 ± 82 nM
- MRT [2, 4]: 5.2 ± 1.5 h
- Tmax [2, 4]: 1.4 ± 0.7 h
- AUC [2, 4]: 1.47 ± 0.563 µM·h
- half-life [2, 4]: 3.9 ± 1.3 h
- bioavailability ([2]; subcutaneous vs intravenous 67 μg/kg, Tables 6A-6C (vehicle 0.2 M Tris, pH 8.0)): 110 ± 49%
Compound: CCc1cc(O)ccc1-c1ccc(C[C@H](NC(=O)[C@H](CC(=O)O)NC(=O)[C@H](CO)NC(=O)[C@@H](NC(=O)C(C)(Cc2ccccc2F)NC(=O)[C@@H](NC(=O)CNC(=O)[C@H](CCC(=O)O)NC(=O)C2(C)CCCN2C(=O)[C@H](Cc2c[nH]cn2)NC(=O)OC)[C@@H](C)O)[C@@H](C)O)C(=O)N[C@@H](Cc2ccc(-c3ccccc3C)nc2)C(N)=O)cc1 (stereo partly drawn) [SEQ ID NO: 158] (Moc-H[ξαMeP]EGT[ξαMePhe(2-F)]TSD[Phe(4-(2-Et-4-HO-Ph))][Ala(6-(2-MePh)pyridin-3-yl)]-NH2)
- effect on postprandial plasma glucose (in words) (ob/ob mice): statistically significant decrease
